Results: US8283106B2, “Sulfonic acid salt and derivative thereof, photoacid generator agent, and resist material and pattern formation method using the photoacid generator agent” (Central Glass Company, Limited, priority 2007, dated 2012)
Read-outs that look alike come from different tables or passages of the source.

Key:
[1] = Resist compatibility of acid generator with base resin in resist composition; format: physicochemical; conditions: for Compatibility: acid generator (1.0), PGMEA (400)
Procedure: Resist compositions were prepared using the above sulfonic acid onium salts PAG 1 and PAG 2 as acid generators and the following polymers (Resin 1 to 5) as base resins. Resist solutions were obtained by filtering the resist compositions with […] membrane filters, respectively.
Each of the obtained resist solutions was spin-coated on a silicon wafer to form a resist film of 250 nm thickness. The resist film was prebaked at 110° C., exposed to a 248-nm ultraviolet ray through a photomask, and then, subjected to post exposure baking treatment at 120° C. After that, the resist film was developed with a […] aqueous tetramethylammonium hydroxide solution for 1 minute at 23° C.
For comparison purposes, the above sulfonic acid onium salts PAG 3, PAG 4 and PAG 7 were tested for the resist compatibility and resist resolution under the same conditions as to the above working examples.

[2] = Resist solvent solubility; format: physicochemical
Procedure: Using propylene glycol monomethyl ether acetate (PGMEA) as a resist solvent, the solubility of PAG 1 to PAG 6 in the resist solvent was measured.

Row | Compatibility ([1]; Resin 1 (40 pts. wt.)) | Compatibility ([1]; Resin 2 (40 pts. wt.)) | Compatibility ([1]; Resin 3 (40 pts. wt.)) | Compatibility ([1]; Resin 4 (40 pts. wt.)) | Compatibility ([1]; Resin 5 (40 pts. wt.)) | resist compatibility compared with the conventional salts ([1]; summary of TABLES 2 and 3) | resist solvent solubility relative to urethane bond-free sulfonic acid onium salts (PAG 3 to PAG 6) ([2]; PGMEA) | Compound | Solubility ([2]; resist solvent propylene glycol monomethyl ether acetate (PGMEA)) | Solubility [2]
1 | Good | Good | Good | Good | Good | higher resist compatibility | twice or more higher | O=C(NC12CC3CC(CC(C3)C1)C2)OCC(F)(F)S(=O)(=O)O [PAG 2, triphenylsulfonium adamantane-1-yl-carbamic acid-2,2-difluoroethylsulfonate] | 0.7 parts by weight of PAG dissolved in 100 parts by weigh of PGMEA | –
2 | – | – | – | – | – | – | – | O=C(OCC(F)(F)S(=O)(=O)O)C12CC3CC(CC(C3)C1)C2 [PAG 6, triphenylsulfonium 2-(1′-adamantane)carbonyloxy-1,1-difluoroethanesulfonate] | – | 0.2 parts by weight of PAG dissolved in 100 parts by weigh of PGMEA
3 | Slightly poor | Slightly poor | Slightly poor | Slightly poor | Slightly poor | – | – | triphenylsulfonium cyclohexyloxycarbonyldifluoromethanesulfonate [PAG 3] | – | 0.4 parts by weight of PAG dissolved in 100 parts by weigh of PGMEA

Row | Compound | Compatibility ([1]; Resin 1 (40 pts. wt.)) | Compatibility ([1]; Resin 2 (40 pts. wt.)) | Compatibility ([1]; Resin 3 (40 pts. wt.)) | Compatibility ([1]; Resin 4 (40 pts. wt.)) | Compatibility ([1]; Resin 5 (40 pts. wt.)) | resist compatibility compared with the conventional salts ([1]; summary of TABLES 2 and 3) | resist solvent solubility relative to urethane bond-free sulfonic acid onium salts (PAG 3 to PAG 6) ([2]; PGMEA) | Solubility ([2]; resist solvent propylene glycol monomethyl ether acetate (PGMEA)) | Solubility [2]
4 | O=C(OCC12CC3CC(CC(C3)C1)C2)C(F)(F)S(=O)(=O)O [PAG 4, triphenylsulfonium (adamantane-1-yl-methyl)oxycarbonyldifluoromethanesulfonate] | Good | Good | Good | Good | Good | – | – | – | 0.3 parts by weight of PAG dissolved in 100 parts by weigh of PGMEA
